Bounds are passed on as bounds.

For the test, the target named is T1, human CYP11B2 (Homo sapiens, UniProt P19099).
T1 construct: expressed in transfected cells; host or cells: V79 Chinese hamster cells
T1 sequence (P19099 25-503): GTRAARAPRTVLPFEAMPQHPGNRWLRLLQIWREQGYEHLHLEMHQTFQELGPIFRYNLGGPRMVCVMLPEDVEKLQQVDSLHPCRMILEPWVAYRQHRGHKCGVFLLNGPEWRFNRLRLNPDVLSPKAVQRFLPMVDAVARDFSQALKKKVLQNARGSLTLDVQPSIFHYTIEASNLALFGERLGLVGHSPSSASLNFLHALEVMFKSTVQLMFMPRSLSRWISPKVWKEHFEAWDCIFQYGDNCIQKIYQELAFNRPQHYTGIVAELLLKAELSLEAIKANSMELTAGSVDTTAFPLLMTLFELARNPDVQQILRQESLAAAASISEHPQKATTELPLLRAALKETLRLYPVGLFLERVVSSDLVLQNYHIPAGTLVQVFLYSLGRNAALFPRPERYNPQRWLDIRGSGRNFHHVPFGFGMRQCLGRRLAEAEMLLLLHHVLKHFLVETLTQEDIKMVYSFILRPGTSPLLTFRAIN
The test can be described thus: Aldosterone inhibitory activity in V79 cells expressing human CYP11B2. It is filed as cell-based. The conditions noted are these: V79 Chinese hamster cells stably transfected with human CYP11B2; substrate 11-deoxycorticosterone 100 nM; read-out: IC50, inhibition of the production of aldosterone. As to the method:
For the determination of aldosterone inhibitory activity, tests were carried out using V79 Chinese hamster cells stably transfected with human CYP11B2 or CYP11B1 and using assay protocols as described in Ehmer P B, Bureik M, Bernhardt R, Muller U, Hartmann R W. Development of a test system for inhibitors of human aldosterone synthase (CYP11B2): screening in fission yeast and evaluation of selectivity in V79 cells. J. Steroid Biochem. Mol. Biol. 2002 June; 81(2):173-9. The concentration of the substrate 11-deoxycorticosterone in the assay was 100 nM.
On to `CC(C)c1ccncc1C(O)(c1nc2cccc(Br)c2s1)C(C)C` (stereo not shown) [Example 34, 1-(7-bromobenzo[d]thiazol-2-yl)-1-(4-isopropylpyridin-3-yl)-2-methylpropan-1-ol], for which the IC50 is below 1 µM. Next, `CCCC(O)(c1nc2cc(F)c(OC(F)(F)F)cc2s1)c1cnccc1OCC` (stereo not shown) [Example 62, 1-(4-ethoxypyridin-3-yl)-1-(5-fluoro-6-(trifluoromethoxy)benzo[d]thiazol-2-yl)butan-1-ol]: below 1 µM. With `CCCC(O)(c1nc2ccc(OC(F)(F)F)cc2s1)c1cnccc1OCC` (stereo not shown) [Example 46, 1-(4-ethoxypyridin-3-yl)-1-(6-(trifluoromethoxy)benzo[d]thiazol-2-yl)butan-1-ol], the IC50 was below 1 µM. Turning to `CCOc1ccncc1C(O)(c1nc2ccc(Br)cc2s1)C(C)C` (stereo not shown) [Example 32, 1-(6-bromobenzo[d]thiazol-2-yl)-1-(4-ethoxypyridin-3-yl)-2-methylpropan-1-ol], the IC50 is below 1 µM.

Regarding `CCCC(O)(c1nc2ccc(OC)cc2s1)c1cnccc1OCC` (stereo not shown) [Example 48, 1-(4-ethoxypyridin-3-yl)-1-(6-methoxybenzo[d]thiazol-2-yl)butan-1-ol], the IC50 is below 1 µM.

For `CCCC(O)(c1nc2c(F)ccc(F)c2s1)c1cnccc1OCC` (stereo not shown) [Example 43, 1-(4,7-difluorobenzo[d]thiazol-2-yl)-1-(4-ethoxypyridin-3-yl)butan-1-ol], the IC50 was below 1 µM. Turning to `CCCC(O)(c1nc2ccc(Br)cc2s1)c1cnccc1OCC` (stereo not shown) [Example 29, 1-(6-bromobenzo[d]thiazol-2-yl)-1-(4-ethoxypyridin-3-yl)butan-1-ol], the IC50 was below 1 µM. Next, `CCCC(O)(c1nc2cc(C)c(OC(F)(F)F)cc2s1)c1cnccc1OCC` (stereo not shown) [Example 60, 1-(4-ethoxypyridin-3-yl)-1-(5-methyl-6-(trifluoromethoxy)benzo[d]thiazol-2-yl)butan-1-ol]: below 1 µM; `CCCC(O)(c1nc2ccc(C(N)=O)cc2s1)c1cnccc1OCC` (stereo not shown) [Example 73, 2-(1-(4-ethoxypyridin-3-yl)-1-hydroxybutyl)benzo[d]thiazole-6-carboxamide]: below 1 µM. The result for `CCCC(O)(c1nc2cc(Br)c(OC(F)(F)F)cc2s1)c1cnccc1OCC` (stereo not shown) [Example 56, 1-(5-bromo-6-(trifluoromethoxy)benzo[d]thiazol-2-yl)-1-(4-ethoxypyridin-3-yl)butan-1-ol] reads below 1 µM. The result for `CCCC(O)(c1nc2cccc(C(F)(F)F)c2s1)c1cnccc1OCC` (stereo not shown) [Example 47, 1-(4-ethoxypyridin-3-yl)-1-(7-(trifluoromethyl)benzo[d]thiazol-2-yl)butan-1-ol] reads below 1 µM; that for `CCCC(O)(c1nc2cccc(Br)c2s1)c1cnccc1OCC` (stereo not shown) [Example 30, 1-(7-bromobenzo[d]thiazol-2-yl)-1-(4-ethoxypyridin-3-yl)butan-1-ol], below 1 µM; that for `CCCC(O)(c1nc2cc(Cl)c(OC(F)(F)F)cc2s1)c1cnccc1OCC` (stereo not shown) [Example 58, 1-(5-chloro-6-(trifluoromethoxy)benzo[d]thiazol-2-yl)-1-(4-ethoxypyridin-3-yl)butan-1-ol], below 1 µM. Turning to `COc1ccncc1C(O)c1nc2cccc(Br)c2s1` (stereo not shown) [Example 27, (7-bromobenzo[d]thiazol-2-yl)(4-methoxypyridin-3-yl)methanol], the 50% inhibitory concentration (IC50) is below 1 µM. The result for `CCCC(O)(c1nc2ccc(F)cc2s1)c1cnccc1OCC` (stereo not shown) [Example 41, 1-(4-ethoxypyridin-3-yl)-1-(6-fluorobenzo[d]thiazol-2-yl)butan-1-ol] reads below 1 µM; that for `CCCC(O)(c1nc2ccc([N+](=O)[O-])cc2s1)c1cnccc1OCC` (stereo not shown) [Example 40, 1-(4-ethoxypyridin-3-yl)-1-(6-nitrobenzo[d]thiazol-2-yl)butan-1-ol], below 1 µM. The result for `CCCC(O)(c1nc2cccc(Cl)c2s1)c1cnccc1OCC` (stereo not shown) [Example 42, 1-(7-chlorobenzo[d]thiazol-2-yl)-1-(4-ethoxypyridin-3-yl)butan-1-ol] reads below 1 µM. For `CCCOc1ccncc1C(O)(CCC)c1nc2ccc(OC(F)(F)F)c(Cl)c2s1` (stereo not shown) [Example 64, 1-(7-chloro-6-(trifluoromethoxy)benzo[d]thiazol-2-yl)-1-(4-propoxypyridin-3-yl)butan-1-ol], the IC50 was below 1 µM. With `CCCC(O)(c1nc2cc(Cl)c(Cl)cc2s1)c1cnccc1OCC` (stereo not shown) [Example 50, 1-(5,6-dichlorobenzo[d]thiazol-2-yl)-1-(4-ethoxypyridin-3-yl)butan-1-ol], the IC50 was below 1 µM. Take `CCCC(O)(c1nc2ccc(OC(F)(F)F)c(Cl)c2s1)c1cnccc1OCC` (stereo not shown) [Example 59, 1-(7-chloro-6-(trifluoromethoxy)benzo[d]thiazol-2-yl)-1-(4-ethoxypyridin-3-yl)butan-1-ol]: the IC50 was below 1 µM. Take `CCCC(O)(c1nc2ccc(OC(F)(F)F)cc2s1)c1cnccc1OC(C)C` (stereo not shown) [Example 49, 1-(4-isopropoxypyridin-3-yl)-1-(6-(trifluoromethoxy)benzo[d]thiazol-2-yl)butan-1-ol]: the IC50 is below 1 µM. The result for `CCCC(O)(c1nc2cc(Cl)c(OCC(F)(F)F)cc2s1)c1cnccc1OCC` (stereo not shown) [Example 69, 1-(5-chloro-6-(2,2,2-trifluoroethoxy)benzo[d]thiazol-2-yl)-1-(4-ethoxypyridin-3-yl)butan-1-ol] reads below 1 µM; that for `CCOc1ccncc1C(O)(c1nc2cccc(Br)c2s1)C(C)C` (stereo not shown) [Example 1, 1-(7-bromobenzo[d]thiazol-2-yl)-1-(4-ethoxypyridin-3-yl)-2-methylpropan-1-ol], below 1 µM. The result for `CCCOc1ccncc1C(O)(CCC)c1nc2cc(Cl)c(OC(F)(F)F)cc2s1` (stereo not shown) [Example 63, 1-(5-chloro-6-(trifluoromethoxy)benzo[d]thiazol-2-yl)-1-(4-propoxypyridin-3-yl)butan-1-ol] reads below 1 µM; that for `CCCC(O)(c1nc2ccc(Oc3ccc(OC(F)(F)F)cc3)cc2s1)c1cnccc1OCC` (stereo not shown) [Example 54, 1-(4-ethoxypyridin-3-yl)-1-(6-(4-(trifluoromethoxy)phenoxy)benzo[d]thiazol-2-yl)butan-1-ol], below 1 µM. In the case of `CCCC(O)(c1nc2ccc(Cl)cc2s1)c1cnccc1OCC` (stereo not shown) [Example 39, 1-(6-chlorobenzo[d]thiazol-2-yl)-1-(4-ethoxypyridin-3-yl)butan-1-ol], the IC50 was below 1 µM. On to `CCCC(O)(c1nc2ccc(OC(F)(F)F)c(Br)c2s1)c1cnccc1OCC` (stereo not shown) [Example 57, 1-(7-bromo-6-(trifluoromethoxy)benzo[d]thiazol-2-yl)-1-(4-ethoxypyridin-3-yl)butan-1-ol], for which the IC50 was below 1 µM.

As to `CCCC(O)(c1nc2cccc(OC)c2s1)c1cnccc1OCC` (stereo not shown) [Example 44, 1-(4-ethoxypyridin-3-yl)-1-(7-methoxybenzo[d]thiazol-2-yl)butan-1-ol], the IC50 was below 1 µM. The result for `CCCC(O)(c1nc2ccc([N+](=O)[O-])cc2s1)c1cnccc1OC` (stereo not shown) [Example 28, 1-(4-methoxypyridin-3-yl)-1-(6-nitrobenzo[d]thiazol-2-yl)butan-1-ol] reads below 1 µM; that for `CCCOc1ccncc1C(O)(CCC)c1nc2ccc(OC(F)(F)F)cc2s1` (stereo not shown) [Example 51, 1-(4-propoxypyridin-3-yl)-1-(6-(trifluoromethoxy)benzo[d]thiazol-2-yl)butan-1-ol], below 1 µM; that for `CCCC(O)(c1nc2cccc(Br)c2s1)c1cnccc1C(C)C` (stereo not shown) [Example 38, 1-(7-bromobenzo[d]thiazol-2-yl)-1-(4-isopropylpyridin-3-yl)butan-1-ol], below 1 µM. Consider `CCCC(O)(c1nc2ccc(Br)cc2s1)c1cnccc1OC` (stereo not shown) [Example 70, 1-(6-bromobenzo[d]thiazol-2-yl)-1-(4-methoxypyridin-3-yl)butan-1-ol], for which the IC50 was below 1 µM. Next, `CCCC(O)(c1nc2cc3c(cc2s1)OC(F)(F)O3)c1cnccc1OCC` (stereo not shown) [Example 52, 1-(2,2-difluoro-[1,3]dioxolo[4′,5′:4,5]benzo[1,2-d]thiazol-6-yl)-1-(4-ethoxypyridin-3-yl)butan-1-ol]: below 1 µM; `COc1ccncc1C(O)(c1nc2cccc(Br)c2s1)C(C)C` (stereo not shown) [1-(7-bromobenzo[d]thiazol-2-yl)-1-(4-methoxypyridin-3-yl)-2-methylpropan-1-ol]: below 1 µM; `CCCC(O)(c1nc2ccc(OC(F)(F)F)c(C)c2s1)c1cnccc1OCC` (stereo not shown) [Example 61, 1-(4-ethoxypyridin-3-yl)-1-(7-methyl-6-(trifluoromethoxy)benzo[d]thiazol-2-yl)butan-1-ol]: below 1 µM. Next, `CCCC(O)(c1nc2ccc(Oc3ccc(F)cc3)cc2s1)c1cnccc1OCC` (stereo not shown) [Example 55, 1-(4-ethoxypyridin-3-yl)-1-(6-(4-fluorophenoxy)benzo[d]thiazol-2-yl)butan-1-ol]: below 1 µM; `CCCC(O)(c1nc2cccc(Br)c2s1)c1cnccc1OC` (stereo not shown) [Example 24, 1-(7-bromobenzo[d]thiazol-2-yl)-1-(4-methoxypyridin-3-yl)butan-1-ol]: below 1 µM.

Source of the values: US11434234B2, “Methods and agents for treating disease” (ANGION BIOMEDICA CORP., priority 2014, dated 2022).
